Assay results from US20090076120A1, “Crystal of Aminopyrrolidine Derivative and Production Method Thereof” (TEIJIN PHARMA LIMITED, priority 2005, published 2009).
Entries after “also recorded” stand apart in the source; their conditions may differ.

Tests used:
[1] = Storage stability comparison in a thermostatic chamber (HPLC purity, XRD crystal form); assay type: physicochemical; settings: for Purity: HPLC
Source text: Crystal A, crystal B and amorphous form of (R)-3-[2-(2-amino-5-trifluoromethoxybenzamido)acetamido]-1(6-methylindol-3-ylmethyl)pyrrolidine in the amount of 1.50 g, 1.50 g and 0.30 g, respectively were each placed in a transparent glass vial. They were simply covered by filter paper and kept in a thermostatic chamber. Samples were serially extracted for HPLC analysis and the appearance was also observed. Transition of crystal form was monitored by XRD analysis at the point of 163 hrs (only for crystals A and B) and 15 days (for all the samples) from the start. The “time” means storage time. The “temperature” is the preset temperature of the thermostatic chamber used for the storage, which was jumped up at 163 hrs from the start.

[2] = Transition of crystal B into crystal A in ethanol/water suspension (HPLC, XRD); assay type: physicochemical; settings: crystal A versus crystal B
Procedure: Five grams of (R)-3-[2-(2-amino-5-trifluoromethoxybenzamido)acetamido]-1-(6-methylindol-3-ylmethyl)pyrrolidine was suspended in 232 mL of ethanol/water (1.22/1), and the suspension was stirred for 3 hours in an oil bath at 20° C. The precipitated crystals were filtered off and dried at 50° C. under reduced pressure. Yield Amount: 4.25 g (yield: 85%)
HPLC pattern and XRD diagram were measured to confirm that the resulting crystal was crystal A of (R)-3-[2-(2-amino-5-trifluoromethoxybenzamido)acetamido]-1-(6-methylindol-3-ylmethyl)pyrrolidine.

[3] = storage 192 hrs, 60 °C from 163 hrs
[4] = storage 240 hrs, 60 °C from 163 hrs
[5] = storage 15 days, 60 °C from 163 hrs
[6] = storage time: initial value, 40 °C, glass vial covered by filter paper
[7] = storage 163 hrs at 40 °C (temperature then raised 40 to 60 °C)

Purity ([1]; storage 24 hrs, 40 °C) [%] | Purity ([1]; storage 71 hrs, 40 °C) [%] | Purity ([1]; storage 144 hrs, 40 °C) [%] | Purity [1, 3] [%] | Purity [1, 4] [%] | Crystal form (XRD) [1, 5] | Purity [1, 5] [%] | Purity [1, 6] [%] | Crystal form (XRD) [1, 7] | Relative stability of the two crystal forms [2] | Structure (SMILES) | Storage stability (degradation), in words ([1]; conclusion from Table 5)
97.78 | 97.55 | 97.25 | 95.88 | 94.33 | amorphous | 91.14 | 98.03 |  |  | Cc1ccc2c(CN3CC[C@@H](NC(=O)CNC(=O)c4cc(OC(F)(F)F)ccc4N)C3)c[nH]c2c1 [amorphous form, (R)-3-[2-(2-amino-5-trifluoromethoxybenzamido)acetamido]-1-(6-methylindol-3-ylmethyl)pyrrolidine] | degradation of amorphous form; also recorded: less storage stability compared to the crystal forms
98.89 | 98.88 | 98.80 | 98.82 | 98.82 | Crystal A | 98.75 | 98.79 | Crystal A | higher than that of crystal B | Cc1ccc2c(CN3CC[C@@H](NC(=O)CNC(=O)c4cc(OC(F)(F)F)ccc4N)C3)c[nH]c2c1 [Crystal A, (R)-3-[2-(2-amino-5-trifluoromethoxybenzamido)acetamido]-1-(6-methylindol-3-ylmethyl)pyrrolidine] | 
99.22 | 99.31 | 99.22 | 99.28 | 99.19 | Crystal B | 99.28 | 99.20 | Crystal B |  | Cc1ccc2c(CN3CC[C@@H](NC(=O)CNC(=O)c4cc(OC(F)(F)F)ccc4N)C3)c[nH]c2c1 [Crystal B, (R)-3-[2-(2-amino-5-trifluoromethoxybenzamido)acetamido]-1-(6-methylindol-3-ylmethyl)pyrrolidine] | 
